Experimental data taken from patent US8410117B2, “Imidazopyrimidine derivatives” (Hoffmann-La Roche Inc., priority 2010, dated 2013).

Molecular target: T1, human PDE10A (Homo sapiens, UniProt Q9Y233)
T1 construct: The human PDE10A full length assay; purchased Enzo Life Science, Lausen, Switzerland SE-534
Assay: human PDE10A full length Scintillation Proximity Assay (SPA)
Format: biochemical
Settings: 50 nM cGMP and 50 nM [3H]-cGMP, 20 minutes at room temperature; read-out: PDE10A inhibition IC50
In short: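 Full-length enzyme at 3.75 ng/well in 20 mM HEPES pH 7.5, 10 mM MgCl2, 0.05 mg/ml BSA, with 50 nM cGMP plus 50 nM [3H]-cGMP substrate, 20 min at room temperature. Stopped with YSi-SPA beads in zinc sulphate and counted by scintillation. IC50 from inhibitor concentration series; no-enzyme wells define background.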

T1 sequence (Q9Y233 1-779 isoform Q9Y233-1): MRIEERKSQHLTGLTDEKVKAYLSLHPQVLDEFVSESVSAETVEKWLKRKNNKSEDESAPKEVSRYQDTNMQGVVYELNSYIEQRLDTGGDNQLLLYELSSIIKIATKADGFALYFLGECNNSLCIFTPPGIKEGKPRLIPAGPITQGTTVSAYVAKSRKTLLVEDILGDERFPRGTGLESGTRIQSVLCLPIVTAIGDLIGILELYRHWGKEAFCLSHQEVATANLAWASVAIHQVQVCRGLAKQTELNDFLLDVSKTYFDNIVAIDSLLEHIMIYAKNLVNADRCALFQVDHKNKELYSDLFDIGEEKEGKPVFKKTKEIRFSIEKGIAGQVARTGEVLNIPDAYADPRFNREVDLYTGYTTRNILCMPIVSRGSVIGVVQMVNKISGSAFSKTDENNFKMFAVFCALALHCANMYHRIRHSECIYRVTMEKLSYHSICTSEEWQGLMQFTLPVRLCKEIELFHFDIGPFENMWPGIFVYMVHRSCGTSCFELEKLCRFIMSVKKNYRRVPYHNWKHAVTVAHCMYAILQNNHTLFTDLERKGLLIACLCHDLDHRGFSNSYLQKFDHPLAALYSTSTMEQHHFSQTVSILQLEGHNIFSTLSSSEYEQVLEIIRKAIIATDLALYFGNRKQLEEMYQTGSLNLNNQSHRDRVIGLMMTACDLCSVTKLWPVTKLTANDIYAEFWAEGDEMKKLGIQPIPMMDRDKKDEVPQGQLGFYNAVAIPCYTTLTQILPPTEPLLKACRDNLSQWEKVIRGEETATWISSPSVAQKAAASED

Structure (SMILES)	IC50
CC(=O)Oc1cccc(-c2cn3ccc(NC(=O)c4c(C(=O)N5CCC5)cnn4C)nc3n2)c1 [Example 105, 3-(7-(4-(azetidine-1-carbonyl)-1-methyl-1H-pyrazole-5-carboxamido)imidazo[1,2-a]pyrimidin-2-yl)phenyl acetate]	36.6 nM
O=C(Nc1ccn2cc(-c3ccccc3)nc2n1)c1ccnn1-c1ccccc1 [Example 4, 2-Phenyl-2H-pyrazole-3-carboxylic acid (2-phenyl-imidazo[1,2-a]pyrimidin-7-yl)-amide]	671 nM
COCCN(C)C(=O)c1cnn(C)c1C(=O)Nc1ccn2cc(-c3cccc(F)c3)nc2n1 [Example 107, 2-Methyl-2H-pyrazole-3,4-dicarboxylic acid 3-{[2-(3-fluoro-phenyl)-imidazo[1,2-a]pyrimidin-7-yl]-amide}4-[(2-methoxy-ethyl)-methyl-amide]]	51.9 nM
O=C(NCC(F)(F)F)c1nccnc1C(=O)Nc1ccn2cc(-c3ccccc3)nc2n1 [Example 43, Pyrazine-2,3-dicarboxylic acid 2-[(2-phenyl-imidazo[1,2-a]pyrimidin-7-yl)-amide]3-[(2,2,2-trifluoro-ethyl)-amide]]	900 nM
CCN(C)C(=O)c1cnn(C)c1C(=O)Nc1ccn2cc(-c3cccc(OCC(=O)OC)c3)nc2n1 [Example 100, [3-(7-{[4-(Ethyl-methyl-carbamoyl)-2-methyl-2H-pyrazole-3-carbonyl]-amino}-imidazo[1,2-a]pyrimidin-2-yl)-phenoxy]-acetic acid methyl ester]	21.8 nM
CCN(C)C(=O)c1[nH]nnc1C(=O)Nc1ccn2cc(-c3ccccc3)nc2n1 [Example 28, 1H-[1,2,3]Triazole-4,5-dicarboxylic acid 5-(ethyl-methyl-amide) 4-[(2-phenyl-imidazo[1,2-a]pyrimidin-7-yl)-amide]]	251 nM
Cc1ccc(CNC(=O)c2cnn(C)c2C(=O)Nc2ccn3cc(-c4ccccc4)nc3n2)nc1 [Example 155, 1-methyl-N4-((5-methylpyridin-2-yl)methyl)-N5-(2-phenylimidazo[1,2-a]pyrimidin-7-yl)-1H-pyrazole-4,5-dicarboxamide]	346 nM
CNC(=O)c1[nH]nnc1C(=O)Nc1ccn2cc(-c3ccccc3)nc2n1 [Example 65, 1H-[1,2,3]Triazole-4,5-dicarboxylic acid 5-methylamide 4-[(2-phenyl-imidazo[1,2-a]pyrimidin-7-yl)-amide]]	34.8 nM
Cn1ncc(C(=O)NCc2cocn2)c1C(=O)Nc1ccn2cc(-c3ccccc3)nc2n1 [Example 112, 1-methyl-N4-(oxazol-4-ylmethyl)-N5-(2-phenylimidazo[1,2-a]pyrimidin-7-yl)-1H-pyrazole-4,5-dicarboxamide]	1.3 nM
CCCNC(=O)c1[nH]nnc1C(=O)Nc1ccn2cc(-c3ccccc3)nc2n1 [Example 156, N4-(2-phenylimidazo[1,2-a]pyrimidin-7-yl)-N5-propyl-1H-1,2,3-triazole-4,5-dicarboxamide]	359 nM
Cn1ncc(C(=O)N2CCC2)c1C(=O)Nc1ccn2cc(-c3cccc(OC(F)(F)F)c3)nc2n1 [Example 61, 4-(Azetidine-1-carbonyl)-2-methyl-2H-pyrazole-3-carboxylic acid [2-(3-trifluoromethoxy-phenyl)-imidazo[1,2-a]pyrimidin-7-yl]-amide]	23.5 nM
Cn1ncc(C(=O)NCc2cn3ccsc3n2)c1C(=O)Nc1ccn2cc(-c3ccccc3)nc2n1 [Example 153, N4-(imidazo[2,1-b]thiazol-6-ylmethyl)-1-methyl-N5-(2-phenylimidazo[1,2-a]pyrimidin-7-yl)-1H-pyrazole-4,5-dicarboxamide]	305 nM
COc1cccc(-c2cn3ccc(NC(=O)c4c(C(=O)N5CCC5)cnn4C)nc3n2)c1 [Example 45, 4-(Azetidine-1-carbonyl)-2-methyl-2H-pyrazole-3-carboxylic acid [2-(3-methoxy-phenyl)-imidazo[1,2-a]pyrimidin-7-yl]-amide]	8.3 nM
Cn1ccc(CNC(=O)c2cnn(C)c2C(=O)Nc2ccn3cc(-c4ccccc4)nc3n2)n1 [Example 157, 1-methyl-N-4-((1-methyl-1H-pyrazol-3-yl)methyl)-N5-(2-phenylimidazo[1,2-a]pyrimidin-7-yl)-1H-pyrazole-4,5-dicarboxamide]	389 nM

Now from value to compound:

IC50	Structure (SMILES)
6.5 nM	CCn1ncc(C(=O)NC)c1C(=O)Nc1ccn2cc(-c3ccccc3)nc2n1 [Example 64, 2-Ethyl-2H-pyrazole-3,4-dicarboxylic acid 4-methylamide 3-[(2-phenyl-imidazo[1,2-a]pyrimidin-7-yl)-amide]]
82.1 nM	CC(C)n1nc([N+](=O)[O-])cc1C(=O)Nc1ccn2cc(-c3ccccc3)nc2n1 [Example 16, 2-Isopropyl-5-nitro-2H-pyrazole-3-carboxylic acid (2-phenyl-imidazo[1,2-a]pyrimidin-7-yl)-amide]
17.6 nM	CC(C)CN(C)C(=O)c1cnn(C)c1C(=O)Nc1ccn2cc(-c3ccccc3)nc2n1 [Example 71, 2-Methyl-2H-pyrazole-3,4-dicarboxylic acid 4-(isobutyl-methyl-amide) 3-[(2-phenyl-imidazo[1,2-a]pyrimidin-7-yl)-amide]]
13.3 nM	CN(CC#N)C(=O)c1cnn(C)c1C(=O)Nc1ccn2cc(-c3ccccc3)nc2n1 [Example 119, N4-(cyanomethyl)-N4,1-dimethyl-N5-(2-phenylimidazo[1,2-a]pyrimidin-7-yl)-1H-pyrazole-4,5-dicarboxamide]
23 nM	CCCNC(=O)c1cnn(C)c1C(=O)Nc1ccn2cc(-c3ccccc3)nc2n1 [Example 57, 2-Methyl-2H-pyrazole-3,4-dicarboxylic acid 3-[(2-phenyl-imidazo[1,2-a]pyrimidin-7-yl)-amide]-4-propylamide]
463 nM	Cn1ncc(C(=O)NCC(C)(C)O)c1C(=O)Nc1ccn2cc(-c3ccccc3)nc2n1 [Example 72, 2-Methyl-2H-pyrazole-3,4-dicarboxylic acid 4-[(2-hydroxy-2-methyl-propyl)-amide]3-[(2-phenyl-imidazo[1,2-a]pyrimidin-7-yl)-amide]]
105 nM	CC(C)n1ncc(Cl)c1C(=O)Nc1ccn2cc(-c3ccccc3)nc2n1 [Example 10, 4-Chloro-2-isopropyl-2H-pyrazole-3-carboxylic acid (2-phenyl-imidazo[1,2-a]pyrimidin-7-yl)-amide]
2.8 nM	Cn1ncc(C(=O)N2CC=CC2)c1C(=O)Nc1ccn2cc(-c3ccccc3)nc2n1 [Example 114, 4-(2,5-dihydro-1H-pyrrole-1-carbonyl)-1-methyl-N-(2-phenylimidazo[1,2-a]pyrimidin-7-yl)-1H-pyrazole-5-carboxamide]
18.7 nM	Cn1ncc(C(=O)NCC#N)c1C(=O)Nc1ccn2cc(-c3ccccc3)nc2n1 [Example 125, N4-(cyanomethyl)-1-methyl-N5-(2-phenylimidazo[1,2-a]pyrimidin-7-yl)-1H-pyrazole-4,5-dicarboxamide]
2.9 nM	Cn1ncc(C(=O)N2CCCCC2)c1C(=O)Nc1ccn2cc(-c3ccccc3)nc2n1 [Example 52, 2-Methyl-4-(piperidine-1-carbonyl)-2H-pyrazole-3-carboxylic acid (2-phenyl-imidazo[1,2-a]pyrimidin-7-yl)-amide]
33.2 nM	Cn1ncc(C(=O)NCC(F)F)c1C(=O)Nc1ccn2cc(-c3ccccc3)nc2n1 [Example 129, N4-(2,2-difluoroethyl)-1-methyl-N5-(2-phenylimidazo[1,2-a]pyrimidin-7-yl)-1H-pyrazole-4,5-dicarboxamide]
